Source: patent US6562632B1, “Reactive derivatives of sulforhodamine 101 with enhanced hydrolytic stability” (Molecular Probes, Inc., priority 1995, dated 2003)
Where “and” joins values, the source holds several entries; their conditions need not be identical. Equal values may be shown once.

Tests used:
[1] = target: bovine serum albumin (BSA) (Bos taurus, UniProt P02769); assay: Protein labeling with reactive dye, degree of substitution on BSA; details: Dye:Protein Ratio 15
Procedure: A fresh solution of the desired protein is prepared that is 10 mg protein/mL in 0.1 M sodium bicarbonate. […] Predetermined amounts of the labeling reagent in DMF are slowly added to the protein solution with stirring. A molar ratio of 10 equivalents dye to equivalent of protein is typical, though the optimal amount varies with particular labeling reagent and protein being labeled. The reaction mixture is incubated at room temperature for one hour. The dye-protein conjugate is separated from free unreacted reagent by gel filtration on a CELLUFINE GH-25 column equilibrated in PBS. The initial, protein-containing colored band is collected from the column, and the degree of substitution is determined by measuring the absorbance of the conjugate at 595 nm, and calculating the degree of substitution using an extinction coefficient of 80,000 cm^−1M^−1 for the dye.

streptavidin (STR) = streptavidin (STR) (Streptomyces avidinii, UniProt P22629); assay: Protein labeling with reactive dye, degree of substitution on streptavidin; details: for Degree of Substitution: STR
Procedure: Protein conjugates of sulforhodamine 101 are prepared using Compound 2 (Example 2). The degree of substitution achieved on the selected proteins (bovine serum albumin (BSA), goat anti-mouse IgG (GAM) or streptavidin (STR)) is then determined.
A fresh solution of the desired protein is prepared that is 10 mg protein/mL in 0.1 M sodium bicarbonate. The labeling reagent (Compound 2) is dissolved in DMF to give a concentration of 10 mg dye/mL. Predetermined amounts of the labeling reagent in DMF are slowly added to the protein solution with stirring. A molar ratio of 10 equivalents dye to equivalent of protein is typical, though the optimal amount varies with particular labeling reagent and protein being labeled. The reaction mixture is incubated at room temperature for one hour. The dye-protein conjugate is separated from free unreacted reagent by gel filtration on a CELLUFINE GH-25 column equilibrated in PBS. The initial, protein-containing colored band is collected from the column, and the degree of substitution is determined by measuring the absorbance of the conjugate at 595 nm, and calculating the degree of substitution using an extinction coefficient of 80,000 cm^−1M^−1 for the dye.
Dye conjugates are similarly prepared using SSC excepting that the protein solution is maintained at pH 9, and the labeling reaction is conducted at ice bath temperatures to minimize hydrolysis of the labeling reagent.

[2] = 90% DMF and 10% aqueous sodium bicarbonate; two hours of incubation; TLC
Procedure: Compound 2 and SSC are separately dissolved in solutions that are 90% DMF and 10% aqueous sodium bicarbonate. Each solution is analyzed using thin layer chromatography (TLC) as follows: An aliquot from each sample is diluted 1:100 in methanol and 1 μL of the resulting solution is spotted on a silica gel TLC plate and developed in 15% methanol in chloroform.

Chain of streptavidin (STR) (P22629 25-183, species assumed): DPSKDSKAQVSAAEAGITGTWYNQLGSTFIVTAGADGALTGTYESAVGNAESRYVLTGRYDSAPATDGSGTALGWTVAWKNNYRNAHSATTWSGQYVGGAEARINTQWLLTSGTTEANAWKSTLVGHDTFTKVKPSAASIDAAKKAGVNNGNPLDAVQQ
Chain of bovine serum albumin (BSA) (P02769 25-607): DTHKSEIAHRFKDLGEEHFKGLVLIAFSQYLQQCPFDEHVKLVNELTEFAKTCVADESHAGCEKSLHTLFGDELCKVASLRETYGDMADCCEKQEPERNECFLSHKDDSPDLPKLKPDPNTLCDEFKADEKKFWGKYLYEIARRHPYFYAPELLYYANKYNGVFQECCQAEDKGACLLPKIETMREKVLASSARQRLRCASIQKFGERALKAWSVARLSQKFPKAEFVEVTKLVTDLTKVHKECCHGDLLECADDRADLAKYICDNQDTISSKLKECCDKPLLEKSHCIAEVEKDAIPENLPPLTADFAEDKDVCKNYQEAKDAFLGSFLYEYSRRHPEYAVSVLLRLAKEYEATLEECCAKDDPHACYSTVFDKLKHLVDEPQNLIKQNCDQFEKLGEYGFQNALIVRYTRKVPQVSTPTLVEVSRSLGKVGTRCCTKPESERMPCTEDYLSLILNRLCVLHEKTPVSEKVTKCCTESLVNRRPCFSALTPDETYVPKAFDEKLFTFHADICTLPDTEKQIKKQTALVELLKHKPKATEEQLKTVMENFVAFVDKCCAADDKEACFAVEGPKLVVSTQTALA

| Compound | Degree of Substitution [1] | Degree of Substitution (streptavidin (STR); Dye:Protein Ratio 1) | Degree of Substitution (streptavidin (STR); Dye:Protein Ratio 2.5) | Degree of Substitution (streptavidin (STR); Dye:Protein Ratio 5.5) | Degree of Substitution (streptavidin (STR); Dye:Protein Ratio 8.0) | Degree of Substitution (streptavidin (STR); Dye:Protein Ratio 10) | Degree of Substitution (streptavidin (STR); Dye:Protein Ratio 20) | Degree of Substitution (streptavidin (STR); Dye:Protein Ratio 30) | Decomposition in the presence of water [2] | Degree of substitution of the streptavidin conjugates used as immunoreagents (streptavidin (STR); two conjugates used in Example 24) |
| --- | --- | --- | --- | --- | --- | --- | --- | --- | --- | --- |
| O=C(CCCCCNS(=O)(=O)c1ccc(C2=c3cc4c5c(c3Oc3c2cc2c6c3CCCN6CCC2)CCC[N+]=5CCC4)c(S(=O)(=O)[O-])c1)ON1C(=O)CCC1=O [Compound 2] | 4.5 | 0.76 | 1.6 | 4.4 | 5.6 | 6.0 | 6.0 | 6.9 | 10-20% |  |
| streptavidin conjugates of SSC: two streptavidin conjugates prepared with SSC [reference compound] |  |  |  |  |  |  |  |  |  | 2.4 dyes per mole and 3.9 dyes per mole |
| sulfonyl chloride of sulforhodamine 101 [SSC, reference compound] | 3.2 | 0.066 | 1.2 | 2.4 | 3.0 | 3.9 | 4.9 | 5.1 |  |  |
